Among the test systems are HCT-15 colon; HT29 colon; IGROV1 ovarian; LOX IMVI melanoma; MCF7 breast; MDA-MB-435; NCI-H226 lung; SK-MEL-28 melanoma; SNB-19 CNS; UACC-257 melanoma.
What all share (assay): NCI anticancer screen, dose series, 48 h

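Test compounds were applied to cells in 96-well plates for 48 hours at 5 doses. At the GI50, growth is halved. The concentration for full growth arrest is given as TGI.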

This is an account of results in PubChem BioAssay (NCI).

With `c1ccc(C2CCCCC2)c(OCCCCCN2CCNCC2)c1`, the GI50 with HCT-15 colon was 1.83 µM; in the experiment on HT29 colon it was 1.6 µM; with IGROV1 ovarian, 2.77 µM; with LOX IMVI melanoma it was 1.59 µM; with MCF7 breast, 1.89 µM; in the experiment on MDA-MB-435 it was 1.69 µM. Moreover, the GI50 in the experiment on NCI-H226 lung is 22.4 µM; in the experiment with SK-MEL-28 melanoma, 1.81 µM; in the experiment on SNB-19 CNS, 3.49 µM; in the experiment with UACC-257 melanoma, 2.35 µM. The TGI with HCT-15 colon amounted to 4.05 µM; in the experiment with HT29 colon, 4.9 µM; in the experiment on IGROV1 ovarian, 12.6 µM; in the experiment with LOX IMVI melanoma, 3.01 µM; in the experiment with MCF7 breast, 4.36 µM; with MDA-MB-435 it was 3.3 µM. For the same compound, the TGI in the experiment on NCI-H226 lung was determined as 48.5 µM; in the experiment on SK-MEL-28 melanoma, 3.57 µM; in the experiment with SNB-19 CNS, 14.4 µM; in the experiment on UACC-257 melanoma it was 4.92 µM.

For `COC1=C(OC)C(=O)C(CCCCCCCCCCO)=C(C)C1=O`, the GI50 with HCT-15 colon was 8.81 µM; in the experiment on HT29 colon, 14.5 µM; in the experiment with IGROV1 ovarian, 9.74 µM; in the experiment on LOX IMVI melanoma, 0.964 µM; in the experiment on MCF7 breast, 1.96 µM; in the experiment on MDA-MB-435, 1.89 µM. Also, the GI50 in the experiment with NCI-H226 lung is 13.8 µM; with SK-MEL-28 melanoma it was 13.5 µM; in the experiment with SNB-19 CNS, 14.8 µM; in the experiment with UACC-257 melanoma it was 1.84 µM. Also, the TGI in the experiment on HCT-15 colon stood at 24.5 µM; in the experiment with HT29 colon, 31.6 µM; in the experiment with IGROV1 ovarian it was 29.7 µM; with LOX IMVI melanoma, 9.72 µM; in the experiment on MCF7 breast, 4.45 µM; with MDA-MB-435 it was 3.9 µM. Further, the TGI worked out at 29.9 µM in the experiment with NCI-H226 lung, 26.5 µM with SK-MEL-28 melanoma, 31.3 µM with SNB-19 CNS and 4.48 µM in the experiment on UACC-257 melanoma.

As to `COc1ccc(-c2[nH]c3ccccc3c2/C=C(\C#N)S(=O)(=O)c2ccccc2)cc1`, the GI50 in the experiment with HCT-15 colon is 0.552 µM; in the experiment on HT29 colon it was 0.309 µM; in the experiment with IGROV1 ovarian it was 3.44 µM; in the experiment with LOX IMVI melanoma, 1.23 µM; in the experiment with MCF7 breast, 0.398 µM; in the experiment with MDA-MB-435, 0.204 µM. The GI50 in the experiment on NCI-H226 lung is 2.02 µM; in the experiment with SK-MEL-28 melanoma it was 1.48 µM; in the experiment on SNB-19 CNS it was 0.844 µM; in the experiment with UACC-257 melanoma it was 10.7 µM. The TGI with HCT-15 colon was > 48 µM; in the experiment on LOX IMVI melanoma, > 100 µM; in the experiment on MCF7 breast it was > 51.6 µM; in the experiment on MDA-MB-435 it was 0.642 µM; in the experiment on NCI-H226 lung it was > 66.4 µM; in the experiment on SK-MEL-28 melanoma, > 71.9 µM. Besides, the TGI with SNB-19 CNS and in the experiment on UACC-257 melanoma was > 100 µM in each case.

For the compound `N#Cc1c(NC(=O)c2ccccc2F)sc2c1CCCC2`, the GI50 was 21.1 µM in the experiment on HCT-15 colon; 10.4 µM in the experiment on HT29 colon; > 25 µM in the experiment on IGROV1 ovarian; > 25 µM with LOX IMVI melanoma; > 19.5 µM with MCF7 breast; 1.31 µM in the experiment with MDA-MB-435. Further, the GI50 in the experiment with NCI-H226 lung, in the experiment on SK-MEL-28 melanoma, in the experiment on SNB-19 CNS and in the experiment on UACC-257 melanoma was > 25 µM each time. Moreover, the TGI with HCT-15 colon is > 25 µM; in the experiment with HT29 colon, > 25 µM; in the experiment with IGROV1 ovarian, > 25 µM; in the experiment with LOX IMVI melanoma, > 25 µM; with MCF7 breast it was > 25 µM; in the experiment on MDA-MB-435, > 12.1 µM. Further, the TGI in the experiment on NCI-H226 lung, with SK-MEL-28 melanoma, in the experiment with SNB-19 CNS and in the experiment on UACC-257 melanoma was > 25 µM throughout.

Regarding `N#Cc1cc2c(cc1Cl)Sc1nnc(Nc3cccc4ccccc34)n1S2(=O)=O`, the GI50 in the experiment on HCT-15 colon was 4.74 µM; with HT29 colon, 3.96 µM; in the experiment on IGROV1 ovarian, 7.38 µM; in the experiment on LOX IMVI melanoma, 3.17 µM; in the experiment with MCF7 breast, 2.1 µM; in the experiment with MDA-MB-435, 4.35 µM. Besides, the GI50 was 7.83 µM in the experiment on NCI-H226 lung, 5.05 µM with SK-MEL-28 melanoma, 1.89 µM with SNB-19 CNS and 14.8 µM with UACC-257 melanoma. Further, the TGI is 24.4 µM in the experiment on HCT-15 colon; 12.7 µM in the experiment with HT29 colon; 21.2 µM in the experiment with IGROV1 ovarian; 10.3 µM in the experiment on LOX IMVI melanoma; 4.8 µM in the experiment with MCF7 breast; 16.4 µM in the experiment with MDA-MB-435. The TGI was determined as 20.9 µM in the experiment on NCI-H226 lung, 16.3 µM in the experiment on SK-MEL-28 melanoma, 4.29 µM with SNB-19 CNS and 30.1 µM in the experiment on UACC-257 melanoma.

On to `CSC1=Nc2c(c(C)c(-c3ccccc3)n2COC(CO)CO)C2=NC(=O)CN12`, for which the GI50 is > 100 µM with HCT-15 colon; > 100 µM in the experiment with HT29 colon; 0.421 µM in the experiment on IGROV1 ovarian; > 100 µM in the experiment with LOX IMVI melanoma; > 100 µM with MCF7 breast; > 100 µM in the experiment with MDA-MB-435. The GI50 with NCI-H226 lung is 88.2 µM; in the experiment with SK-MEL-28 melanoma, > 100 µM; with SNB-19 CNS, > 100 µM; with UACC-257 melanoma it was > 100 µM. In addition, the TGI was > 100 µM in the experiment on HCT-15 colon; > 100 µM in the experiment on HT29 colon; 42.8 µM in the experiment with IGROV1 ovarian; > 100 µM in the experiment on LOX IMVI melanoma; > 100 µM in the experiment with MCF7 breast; > 100 µM with MDA-MB-435. For the same compound, the TGI in the experiment on NCI-H226 lung, in the experiment on SK-MEL-28 melanoma, with SNB-19 CNS and with UACC-257 melanoma was > 100 µM in each case.

Turning to `Cc1ccc(S(=O)(=O)NC(=O)OC23COCN2COC3)cc1`, the TGI in the experiment on HCT-15 colon, with HT29 colon, with IGROV1 ovarian, in the experiment with LOX IMVI melanoma, in the experiment with MCF7 breast and in the experiment with MDA-MB-435 was > 100 µM each time. Moreover, the TGI with NCI-H226 lung, in the experiment on SK-MEL-28 melanoma, with SNB-19 CNS and with UACC-257 melanoma was > 100 µM throughout.

As to `COc1ccc2c(c1)C(=O)c1c-2c(=O)n(CCCN(C)C)c2cc(OC)c(OC)cc12`, the GI50 was 12.6 µM with HCT-15 colon; 3.69 µM with HT29 colon; 10.1 µM in the experiment with IGROV1 ovarian; 1.6 µM in the experiment with LOX IMVI melanoma; 0.141 µM in the experiment with MCF7 breast; 11.3 µM in the experiment on MDA-MB-435. Also, the GI50 with NCI-H226 lung was 3.39 µM; in the experiment on SK-MEL-28 melanoma, 17.9 µM; in the experiment with SNB-19 CNS it was 3.3 µM; with UACC-257 melanoma it was 16.9 µM. The TGI with HCT-15 colon amounted to 27.4 µM; with HT29 colon it was 19.1 µM; with IGROV1 ovarian it was 21.8 µM; in the experiment with LOX IMVI melanoma, 15.6 µM; in the experiment on MCF7 breast it was 15.3 µM; in the experiment on MDA-MB-435 it was 23.3 µM. Moreover, the TGI is > 100 µM in the experiment with NCI-H226 lung, 32 µM in the experiment with SK-MEL-28 melanoma, 20.6 µM with SNB-19 CNS and 33 µM in the experiment on UACC-257 melanoma.
